Data on 74 compounds can be found in PubChem BioAssay AID1996.

Each structure is given as a SMILES string. In brackets after ≈: the same amount, converted by molar mass.

For the series the following is noted: buffer; pH 7.4; 200.0 µM.
Turning to `CCc1ccc(N2CC(C(=O)Nc3cc(C)on3)CC2=O)cc1` (centres undefined), the kinetic solubility is 26 µg/mL (≈ 83 µM).

Turning to `O=C(Cc1ccccc1F)Nc1ccccc1-c1ccccc1`, the solubility (kinetic) came to 7.1 µg/mL (≈ 23.3 µM).

Compound `Cc1nc(N)c(Br)c(C)c1Br` came in with a solubility (kinetic) of 6.2 µg/mL (≈ 22.1 µM).

As for `Cc1cccc(N2C(=O)C(O)=C(C(=O)c3cccs3)C2c2ccccc2)n1` (centres undefined), the kinetic solubility was determined as 53 µg/mL (≈ 141 µM).

`Cc1oc(S(=O)(=O)N2CCOCC2)cc1C(=O)Nc1ccc(F)cc1`: the kinetic solubility amounted to 5.4 µg/mL (≈ 14.7 µM).

As for `CN(C)S(=O)(=O)c1ccc(C(=O)/C=C/c2cccnc2)cc1`, the solubility (kinetic) turned out to be 3.3 µg/mL (≈ 10.4 µM).

On to `Cc1cccc(OCCC(=O)Nc2ccc(C)c(S(=O)(=O)N3CCOCC3)c2)c1`, for which the kinetic solubility was 21.5 µg/mL (≈ 51.4 µM).

`O=S(=O)(Nc1cccc(S(=O)(=O)N2CCCC2)c1)c1ccccc1F` yielded a solubility (kinetic) above 57.7 µg/mL.

As to `Cc1cc(-c2ccccc2C(=O)NC2CCCCC2)on1`, the kinetic solubility amounted to 31.8 µg/mL (≈ 112 µM).

`COc1ccc(OC)c(NC(=O)CN2c3cccc4cccc(c34)S2(=O)=O)c1` showed a kinetic solubility of 2.2 µg/mL (≈ 5.52 µM).

Regarding `Cc1cc(C)n(-c2c(C)[nH]c3ccccc23)n1`, the kinetic solubility was above 33.8 µg/mL.

In turn, `CC(=O)Nc1ccc(NC(=O)c2sc(-c3ccccc3)nc2C)cc1` had a kinetic solubility of 0.9 µg/mL (≈ 2.56 µM).

In turn, `O=C(O)CC(SCC(=O)NC1CCCc2ccccc21)C(=O)O` (centres undefined) gave a kinetic solubility above 50.6 µg/mL.

Compound `Nc1nc(Nc2ccccc2)nc(N2CCCC2)c1[N+](=O)[O-]` came in with a kinetic solubility of 27.6 µg/mL (≈ 91.9 µM).

Compound `Cc1ccc(NC(=O)NCc2cccn2C)cc1C` showed a solubility (kinetic) of 2.2 µg/mL (≈ 8.55 µM).

Consider `Nc1cc[n+](CC(=O)c2ccccc2)cc1.[Br-]`, for which the kinetic solubility is above 44 µg/mL.

`Cc1ccc(Cl)c(OCC(=O)Nc2ccccc2C(=O)NC2CC2)c1` showed a kinetic solubility of 5.9 µg/mL (≈ 16.4 µM).

`COc1ccc2c(c1)Sc1ccccc1N2` yielded a solubility (kinetic) of 2.7 µg/mL (≈ 11.8 µM).

`CCSc1ccccc1C(=O)NCc1cccnc1` displayed a kinetic solubility above 40.9 µg/mL.

As for `COc1ccc(CNc2ncc(-c3ccccc3)n2C)cc1`, the kinetic solubility was 28.6 µg/mL (≈ 97.5 µM).

As for `COc1cc(CNCCO)ccc1OCCc1ccccc1`, the solubility (kinetic) is above 45.2 µg/mL.

As for `Cc1[nH]c(C(=O)O)c(C#N)c1C(=O)c1ccccc1`, the solubility (kinetic) was above 38.1 µg/mL.

As for `Cc1cccc(OCc2nnc(SC(C)C(=O)Nc3ccc(N4CCOCC4)cc3)o2)c1` (centres undefined), the solubility (kinetic) is above 68.2 µg/mL.

Compound `Cc1ccc(OCC(=O)N2CCc3ccccc32)c([N+](=O)[O-])n1` had a kinetic solubility of 1 µg/mL (≈ 3.19 µM).

In turn, `Cc1nc(C)c(-c2csc(Nc3ccc(F)cc3)n2)s1` showed a kinetic solubility of 1.8 µg/mL (≈ 5.89 µM).

For the compound `Cc1ccc(CNC(=O)/C=C/C(=O)O)cc1`, the solubility (kinetic) was above 32.9 µg/mL.

With `Cc1ccc(CSC2=NCCN2C(=O)c2ccc([N+](=O)[O-])cc2)cc1`, the solubility (kinetic) is 6.3 µg/mL (≈ 17.7 µM).

As for `O=C(NNC(=O)c1cccnc1Cl)c1ccc(F)cc1`, the solubility (kinetic) is above 44.1 µg/mL.

Compound `Cc1csc(NC(=O)Cc2ccccc2Cl)n1` registered a solubility (kinetic) of 34.4 µg/mL (≈ 129 µM).

In turn, `COc1cccc(Nc2nc(N)c([N+](=O)[O-])c(NCc3ccco3)n2)c1` had a solubility (kinetic) of 1.2 µg/mL (≈ 3.37 µM).

In turn, `COc1ccc(-c2cc(-c3ccccc3)nc(Cl)n2)cc1OC` came in with a solubility (kinetic) below 0.3 µg/mL.

As to `Clc1ccc(CNc2ccc(N3CCN(Cc4ccccc4)CC3)cc2)cc1`, the solubility (kinetic) came to 1 µg/mL (≈ 2.55 µM).

`O=C(Nc1ccc(Cl)c(Cl)c1)c1cccnc1` yielded a solubility (kinetic) above 40.1 µg/mL.

In the case of `Cc1c(C)c(C)c(CN2CCSCC2)c(C)c1C`, the kinetic solubility is below 0.6 µg/mL.

Take `CC1CCc2c(C(=O)NCc3ccco3)csc2C1` (centres undefined): the solubility (kinetic) is 34.9 µg/mL (≈ 127 µM).

For `CCOC(=O)c1ccc(NC(=O)c2cc(=O)[nH]c3ccccc23)cc1`, the solubility (kinetic) was below 0.4 µg/mL.

With `Cc1csc(SCC(=O)Nc2ccc3[nH]c(=O)[nH]c3c2)n1`, the solubility (kinetic) is above 48.1 µg/mL.

The compound `COc1ccc(Cc2cnc(N)s2)cc1` returned a kinetic solubility of 31.8 µg/mL (≈ 144 µM).

The compound `O=C(O)CCN1C(=O)c2ccc(NC(=O)CCc3ccccc3)cc2C1=O` gave a solubility (kinetic) above 55 µg/mL.

Take `O=C(/C=C/c1ccccc1)Nc1nc(-c2ccncc2)cs1`: the kinetic solubility turned out to be 0.9 µg/mL (≈ 2.93 µM).

For `COc1ccc(C(=O)O)c(OC)n1`, the kinetic solubility was above 27.5 µg/mL.

`COc1ccc(CCC(=O)Nc2ccc3c(c2)OCO3)cc1` returned a solubility (kinetic) of 7.3 µg/mL (≈ 24.4 µM).

`CC(C)(CN=C1NS(=O)(=O)c2ccccc21)CNC(=O)c1ccccc1`: the solubility (kinetic) is above 55.7 µg/mL.

`CC1CCCCN1C(=O)CCn1c(=S)oc2ccccc21` (centres undefined) yielded a kinetic solubility of 43.9 µg/mL (≈ 144 µM).

Turning to `Cn1c(N)c(C(=O)COC(=O)c2ccc(-c3ccccc3)cc2)c(=O)n(C)c1=O`, the solubility (kinetic) worked out at 6.8 µg/mL (≈ 17.3 µM).

`CC(C)(C)c1ccc(C2=NC(=O)C(CC(=O)O)S2)cc1` (centres undefined): the kinetic solubility stood at 37.4 µg/mL (≈ 128 µM).

The compound `N#CCc1ccc(NC(=O)Cn2c(=O)oc3ccccc32)cc1` yielded a solubility (kinetic) of 6.7 µg/mL (≈ 21.8 µM).

`Cc1cc(NC(=O)COC(=O)C2CC(=O)N(c3ccccc3)C2)no1` (centres undefined): the solubility (kinetic) is above 51.5 µg/mL.

Consider `CCOc1ccc(S(=O)(=O)NCCCl)cc1`, for which the solubility (kinetic) was above 39.6 µg/mL.

Turning to `Cc1ccc(S(=O)(=O)NC2CCCCCC2)cc1C(N)=O`, the solubility (kinetic) was above 46.6 µg/mL.

For `O=C(/C=C/c1ccccc1F)N1CCN(c2ccccn2)CC1`, the kinetic solubility came out at 35.8 µg/mL (≈ 115 µM).

With `O=C(CCC(=O)N1CCN(c2ccccc2F)CC1)c1ccc(Cl)s1`, the kinetic solubility is 19.5 µg/mL (≈ 51.2 µM).

`Cc1cccc(-n2c(C)cc(/C=C3\NC(=O)NC3=O)c2C)c1` gave a kinetic solubility of 1.8 µg/mL (≈ 6.09 µM).

On to `CC(C)CC(C(=O)N1CCOCC1)N1Cc2ccccc2C1=O` (centres undefined), for which the kinetic solubility came to 47.3 µg/mL (≈ 149 µM).

As to `COc1cc(/C=C2\SC(N3CCC(C)CC3)=NC2=O)ccc1O`, the kinetic solubility was above 49.9 µg/mL.

Regarding `CN(CCOc1ccccc1)CC(O)COCc1ccccc1F` (centres undefined), the solubility (kinetic) came out at 46 µg/mL (≈ 138 µM).

As for `CC1CCCC(C)N1C(=O)c1cc(-c2ccco2)on1` (centres undefined), the solubility (kinetic) was above 41.1 µg/mL.

Turning to `COC(=O)c1sccc1-n1cccc1C(=O)C(=O)N1CCOCC1`, the solubility (kinetic) amounted to 46.3 µg/mL (≈ 133 µM).

In turn, `O=[N+]([O-])c1ccc(N2CCN(c3cccc(Cl)c3)CC2)cn1` yielded a kinetic solubility of 2.6 µg/mL (≈ 8.16 µM).

Regarding `c1ccc(COCC2CCNCC2)cc1`, the solubility (kinetic) was above 30.8 µg/mL.

For the compound `O=C(CN1CCCCCC1)Nc1ccc(S(=O)(=O)N2CCCCC2)cc1`, the solubility (kinetic) was determined as 50.4 µg/mL (≈ 133 µM).

`CCOC(=O)N1CCN(C(=O)CNC(=O)c2ccccc2F)CC1` had a kinetic solubility above 50.6 µg/mL.

Compound `Cc1cc(=O)cc(C)n1-c1ccc(F)cc1F` came in with a kinetic solubility above 35.3 µg/mL.

The compound `CN1CCC(OC(=O)c2ccco2)CC1.Cl` gave a solubility (kinetic) above 36.9 µg/mL.

The compound `C/C(=C/c1ccccc1)C(=O)N1CCN(c2ccc(F)cc2)CC1` yielded a solubility (kinetic) of 36.1 µg/mL (≈ 111 µM).

In the case of `Cc1ccc(S(=O)(=O)N2CCN(CC(=O)N3CCCC3)CC2)c(C)c1`, the kinetic solubility is above 54.8 µg/mL.

Take `COc1ccc(NC(=O)CCCOc2ccc(Cl)c(C)c2)cc1S(=O)(=O)N1CCOCC1`: the kinetic solubility stood at 15.3 µg/mL (≈ 31.7 µM).

In turn, `NC(=NC(=O)c1ccc(OCC(F)(F)F)nc1)c1ccc(Cl)cc1` registered a kinetic solubility of 2 µg/mL (≈ 5.59 µM).

Turning to `CC(C)(C)c1ccc(Oc2ncccc2NC(=O)c2cccs2)cc1`, the solubility (kinetic) is below 0.4 µg/mL.

As to `Cc1ccc(C)c(SCC(=O)NC2CCS(=O)(=O)C2)c1` (centres undefined), the kinetic solubility is above 47 µg/mL.

In turn, `CCN(CC)Cc1nc2c(c(=O)[nH]1)C(CC)(CC)Cc1ccccc1-2` gave a solubility (kinetic) of 1.7 µg/mL (≈ 5.01 µM).

`CCN1CCN(C(=O)c2c(-c3ccccc3)noc2C)CC1` displayed a kinetic solubility of 40 µg/mL (≈ 134 µM).

`Cc1ccc2nc(NC(=O)C3CC3C)sc2c1` (centres undefined) came in with a kinetic solubility of 2.4 µg/mL (≈ 9.74 µM).

For the compound `O=C(NCC1CCCO1)c1ccc(COc2ccccc2)cc1` (centres undefined), the solubility (kinetic) is above 46.7 µg/mL.

One may read the kinetic solubility as solubility judged after dilution from a stock solution rather than from solid.
